Experiment [1] addresses T1, SMYD3 (Homo sapiens, UniProt Q9H7B4).
T1 sequence (Q9H7B4 1-428): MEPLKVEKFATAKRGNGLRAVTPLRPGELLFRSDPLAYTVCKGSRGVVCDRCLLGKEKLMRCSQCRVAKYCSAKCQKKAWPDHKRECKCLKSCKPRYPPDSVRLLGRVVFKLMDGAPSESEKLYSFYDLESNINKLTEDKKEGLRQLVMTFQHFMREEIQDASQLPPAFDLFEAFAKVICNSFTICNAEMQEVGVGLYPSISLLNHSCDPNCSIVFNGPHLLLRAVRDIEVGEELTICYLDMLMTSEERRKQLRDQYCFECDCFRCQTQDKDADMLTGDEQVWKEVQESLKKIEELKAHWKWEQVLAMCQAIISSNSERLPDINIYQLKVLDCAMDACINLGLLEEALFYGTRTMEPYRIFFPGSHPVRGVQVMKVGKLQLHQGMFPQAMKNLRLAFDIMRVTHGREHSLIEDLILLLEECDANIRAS
On the set-up: Protein purification of both isoforms of full length SMYD3 was performed as previously reported; made in house; method as in Mitchell et al (2016). To be noted: read-out: Biochemical IC50, ref Mitchell et al (2016); cited from earlier work.

Experiment [2] has as its target T1, SMYD3. On the set-up: endogenous in cells; host or cells: 313 cancer cell lines; method as in Mitchell et al (2016). To be noted: read-out: Intracellular Methylation IC50; MAP3K2 methylation; ref Mitchell et al (2016); cited from earlier work.
A further experiment relates to KYSE-150. Nature of the experiment: Cell proliferation, KYSE-150. The experiment is classed as cell-based. To be noted: Homo sapiens, read-out: Cellular Proliferation IC50. As for the experimental part: (§1) Cell lines used in these experiments were obtained from the following sources and were cultured according to conditions specified by the respective cell banks. […] The cell lines listed above were tested for mycoplasma and were negative. Cells were authenticated by STR method or vendor protocols. All 313 cell lines in the CRIPSR pooled screen were purchased from commercial vendors and were STR authenticated and mycoplasma negative. A broad panel of cancer cell lines was screened in the Eurofins Oncopanel. All cells in this panel were mycoplasma negative and STR verified.
Thus, 5 compounds representing 4 distinct pharmacophore series of SMYD2 inhibitors are now available for testing the dependence of cancer lines on SMYD2 activity. […] In stark contrast, however, no correlation is seen between the potency for BTF3 methylation inhibition and anti-proliferative activity among these compounds (Fig 3B).

In experiment [3] the target is T2, SMYD2 (Homo sapiens, UniProt Q9NRG4). Nature of the experiment: SMYD2 biochemical methylation assay (3H-SAM, H3,1–29 peptide, flashplate). On the set-up: Full length FLAG-SMYD2 and C-terminally Avi-tagged full length SMYD2 (SMYD2-Avi) were cloned into pFastbac vectors; FLAG (N); His tag with TEV cleavage site (N, cleaved yes); made in house; host or cells: Sf9 insect cells (baculovirus). As for the experimental part: Full length FLAG-SMYD2 and C-terminally Avi-tagged full length SMYD2 (SMYD2-Avi) were cloned into pFastbac vectors containing an N-terminal His tag with TEV cleavage site. Virus production was performed using standard protocols and the proteins were coexpressed in either Sf9 (SMYD2) or Hi Five (SMYD2-Avi) cells. After harvest by centrifugation, cell pellets for both proteins were resuspended, sonicated, and then centrifuged to remove cell debris. Protein was purified using nickel affinity chromatography before and after TEV cleavage in a similar fashion as SMYD3. […] SMYD2-Avi was biotinylated using His-tagged BirA enzyme after dialysis into a low salt buffer and the BirA was removed with a final nickel affinity column. […] SMYD3 assays were performed as previously described using N-terminally GST-tagged MAP3K2 protein substrate. […] Reactions were conducted at room temperature with enzyme and inhibitor incubated for 30 minutes before initiating the reaction with substrates. Dose-response curves were tested in duplicate in each experiment. […] Quenched reactions were transferred to a streptavidin-coated flashplate (Perkin Elmer) for capture of the biotinylated peptide. After 2 h incubation at room temperature, the flashplate was washed once with 0.1% Tween-20 and read on a Perkin Elmer Topcount NXT plate reader. Substrate apparent KM values were determined by measuring the initial velocities (v0) in duplicate while varying one substrate at fixed concentration of the second substrate. […] Percent inhibition by compound (% inh) was calculated from Eq 3 %inh=(1-([…] the signal in the presence of compound and max and min are the signals for the DMSO and background controls respectively. […] Mechanism of inhibition was determined by measuring the inhibitor IC50 values while varying the concentration of one substrate at a fixed concentration of the second substrate equal to its KM value. The inhibition constant Ki was calculated from fitting the IC50 versus varied substrate concentration data using the Cheng-Prusoff equations for mixed-type and noncompetitive inhibition below. α is the coefficient accounting for differences in inhibitor affinity between binding enzyme forms after versus before substrate binding.

Experiment [4] has as its system panel of 240 cancer cell lines. The experiment can be described thus: Proliferation in a broad panel of 240 cancer cell lines, 2D culture (Eurofins Panlabs Oncopanel). In kind it is cell-based. To be noted: for IC50: read-out: anti-proliferative IC50 across the panel of 240 cancer cell lines, 2D culture. As for the experimental part:
as §1

Experiment [5] concerns the target T2, SMYD2. The experiment can be described thus: Intracellular BTF3 monomethylation (BTF3me1) western blot. The experiment is classed as cell-based. On the set-up: endogenous in cells; host or cells: 313 cancer cell lines. To be noted: read-out: Intracellular Methylation IC50. As for the experimental part:
Cells were lysed in 1X RIPA Buffer containing 10% SDS and Halt™ Protease Inhibitor Cocktail (Thermo Fisher Scientific) and incubated on ice for 30 minutes before sonication (Amplitude 20%/10sec) twice. Lysates were spun at […] at 4°C for 10min and normalized for protein concentration by BCA assay (Thermo Fisher Scientific). […] Blots were imaged using the Odyssey Imaging System (LICOR Biosciences). […] BTF3me1 is a custom generated polyclonal antibody, affinity purified from serum of rabbits injected with adjuvant conjugated peptide corresponding to methylated K1 of BTF3 (K(Me)-[…]).
SMYD2 catalyzes the methylation of lysine residues on several proteins, including BTF3 [40].
A general note: A western blot detects proteins with antibodies after separation by electrophoresis.

The target of experiment [6] is T1, SMYD3. Nature of the experiment: SMYD3 biochemical methylation assay (3H-SAM, GST-MAP3K2/MEKK2 substrate). More on the design: Protein purification of both isoforms of full length SMYD3 was performed as previously reported; made in house. To be noted: tested in duplicate; read-out: selectivity panel result, SMYD3 (off-target). As for the experimental part:
SMYD3 assays were performed as previously described using N-terminally GST-tagged MAP3K2 protein substrate. […] Reactions were conducted at room temperature with enzyme and inhibitor incubated for 30 minutes before initiating the reaction with substrates. Dose-response curves were tested in duplicate in each experiment. […] Quenched reactions were transferred to a streptavidin-coated flashplate (Perkin Elmer) for capture of the biotinylated peptide. After 2 h incubation at room temperature, the flashplate was washed once with 0.1% Tween-20 and read on a Perkin Elmer Topcount NXT plate reader. Substrate apparent KM values were determined by measuring the initial velocities (v0) in duplicate while varying one substrate at fixed concentration of the second substrate.
Mechanism of inhibition was determined by measuring the inhibitor IC50 values while varying the concentration of one substrate at a fixed concentration of the second substrate equal to its KM value.

The target in experiment [7] is T2, SMYD2. To be noted: read-out: apparent SAM KM (reported); p53 peptide substrate, pH 9.0; 2 (supplemental references); cited from earlier work.
The next experiment relates to several cell lines. To be noted: cited from earlier work.
Experiment [8] concerns the target T1, SMYD3. To be noted: read-out: Kd for binding to SMYD3; cited from earlier work.
For a further experiment, the system named is several enzymes. More on the design: method as in http://www.chemicalprobes.org. To be noted: ref http://www.chemicalprobes.org; cited from earlier work.
For experiment [9], the system named is cell lines found to be sensitive to LLY-507. To be noted: cited from earlier work.
Where [10] appears, read: SMYD2, 20 nM SAM, 60 nM H3,1–29 peptide, read-out: Biochemical IC50.

Where two headings read alike, the source gives them in different places.

T2 sequence (Q9NRG4 whole entry): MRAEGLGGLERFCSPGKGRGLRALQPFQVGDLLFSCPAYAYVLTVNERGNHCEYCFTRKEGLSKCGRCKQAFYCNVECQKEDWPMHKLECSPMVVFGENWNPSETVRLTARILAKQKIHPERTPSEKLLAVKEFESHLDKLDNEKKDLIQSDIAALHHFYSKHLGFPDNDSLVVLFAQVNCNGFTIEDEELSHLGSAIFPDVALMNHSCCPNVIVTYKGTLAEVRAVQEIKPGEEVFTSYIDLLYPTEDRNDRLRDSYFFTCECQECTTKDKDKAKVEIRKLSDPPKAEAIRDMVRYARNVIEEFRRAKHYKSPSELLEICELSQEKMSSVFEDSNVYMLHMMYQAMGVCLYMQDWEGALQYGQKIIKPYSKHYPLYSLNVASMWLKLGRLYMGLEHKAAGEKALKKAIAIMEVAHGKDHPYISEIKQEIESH

`O=C1Cc2cc(C(=O)NC3CC4CCC(C3)N4S(=O)(=O)CC3CCN(CCCC(F)(F)F)CC3)c(Cl)cc2N1` (stereo not shown) [EPZ031686]: the IC50 is 3 nM at SMYD3 [1] and 36 nM on SMYD3 [2].

Usually Ki stands for a measure of affinity in units of concentration, obtained from inhibition or displacement. As for `O=C(NC1CN(Cc2cnn(Cc3ccccc3)c2)C1)c1cn(C2CC2)nn1` [EPZ032597], the IC50 in the experiment with KYSE-150 was more than 40000 nM; at SMYD2 [3] (IC50 at 20 nM SAM, 1 nM SMYD2, 60 nM H3,1-29, 20 nM SAM) it was 21 ± 2 nM; at SMYD2 [3] (IC50 at 200 nM SAM, 1 nM SMYD2, 60 nM H3,1-29, 200 nM SAM) it was 25 ± 5 nM; at SMYD2 [3] (setting [10]), 16 nM; in experiment [4], more than 10000 nM; at SMYD2 [5] it was 31 nM. In addition, the IC50 on SMYD3 [6] was more than 10000 nM. Also, on SMYD2 [3] (1 nM enzyme, 20 nM SAM, varied H3,1–29), the “mechanism of inhibition with respect to peptide substrate” value is “noncompetitive”. At SMYD2 [3] (varied H3,1–29 peptide, Eq 6, read-out: Ki (noncompetitive versus peptide)), the Ki was 21.5 ± 1.5 nM. In addition, the “growth inhibition on repeat testing of hematologic cancer cell lines” value in [4] (cell lines with lower IC50 in the initial screen) was less than 50%.

For orientation: Km means the concentration of substrate that gives half-maximal velocity. Take `C[S+](CC[C@H](N)C(=O)[O-])C[C@H]1O[C@@H](n2cnc3c(N)ncnc32)[C@H](O)[C@@H]1O` (stereo partly drawn) [SAM, S-(5’adenosyl)-L-methionine]: the Km at SMYD2 [3] (1 nM SMYD2, 60 nM H3,1–29, Eq 2, upper limit for the true KM, read-out: apparent KM for SAM) is 0.00034 ± 7e-05 µM; on SMYD2 [7], 0.03 to 0.06 µM.

The term Kd denotes the equilibrium constant for the complex coming apart. As for `NC(=O)C1CCN(CC(=O)Nc2ccc(Br)cc2)CC1` [BCI-121], the “inhibition of proliferation of several cell lines” value with several cell lines (at 100 µM) is 20–30%. Besides, the IC50 with several cell lines (ref Peserico et al (2015), read-out: Cellular Proliferation IC50) is more than 100000 nM. In addition, on SMYD3 [8], the Kd was 11800 nM.

On to `Cc1cn(CCN2CCN(c3ccccc3-c3cc(C#N)cc(C(=O)NCCCN4CCCC4)c3)CC2)c2ccccc12` [LLY-507, reference compound], for which the IC50 in the experiment with KYSE-150 is 1800 nM; in [4] it was 1000 to 5000 nM. Further, in the experiment with several enzymes, the “inhibition of several enzymes (off-target potency)” value is less than 1000 nM.

As to `CCN(C(=O)CO)[C@H]1CN(/C(=N\C#N)Nc2cccc(OC(F)F)c2)N=C1c1ccc(Cl)c(Cl)c1` [BAY-598], in [9] (cell lines found to be sensitive to LLY-507), the “impact on cell proliferation or induction of apoptosis” value is reported as “little impact”. Further, in experiment [9] (ref Eggert et al (2016), read-out: Cellular Proliferation IC50), the IC50 was more than 20000 nM.

As to `O=C1COc2c(CCNCCN(C(=O)CCNCCc3ccc(Cl)c(Cl)c3)C3CCCCC3)ccc(O)c2N1` [AZ505, reference compound], the results for the IC50 in the experiment on KYSE-150, on SMYD2 [3] (setting [10]) and at SMYD2 [5] were 12800 nM, 51 nM and 13900 nM, respectively.

Source of the values: publication PMC5983452 (PLoS ONE, 2018).
